Data: patent publication US20240158446A1, “CYCLIC COMPOUND HAVING SELECTIVE INHIBITORY ACTION ON KRAS OVER HRAS AND NRAS” (CHUGAI SEIYAKU KABUSHIKI KAISHA, priority 2021, published 2024)
Where two headings read alike, the source gives them in different places.

Key:
[1] = test system: human lung cancer strain NCI-H441;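 note: cell proliferation inhibition after four days measured by CellTiter-Glo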
[2] = target: GDP-bound HRAS wild-type protein (Homo sapiens, UniProt P01112); assay: Binding to HRAS by surface plasmon resonance (SPR), Single Cycle Kinetics; details: for HRAS/KRAS (ratio of KD value with respect to GDP-bound HRAS wild-type protein to KD value with respect to KRAS): SPR KD ratio HRAS/KRAS, class symbols; for HRAS/KRAS (ratio of KD value for HRAS to KD value for KRAS): GDP-bound HRAS wild-type protein vs GDP-bound KRAS wild-type protein
GDP-bound HRAS wild-type protein, sequence (P01112 whole entry): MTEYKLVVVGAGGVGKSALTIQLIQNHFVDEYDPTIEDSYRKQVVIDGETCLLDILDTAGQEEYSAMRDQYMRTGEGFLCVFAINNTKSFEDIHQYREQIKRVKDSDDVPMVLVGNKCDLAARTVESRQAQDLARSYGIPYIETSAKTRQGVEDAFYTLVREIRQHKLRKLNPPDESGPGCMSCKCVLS

[3] = target: GDP-bound NRAS wild-type protein (Homo sapiens, UniProt P01111); assay: Binding to NRAS by surface plasmon resonance (SPR), Single Cycle Kinetics; details: for NRAS/KRAS (ratio of KD value with respect to GDP-bound NRAS wild-type protein to KD value with respect to KRAS): SPR KD ratio NRAS/KRAS, class symbols; for NRAS/KRAS (ratio of KD value for NRAS to KD value for KRAS): GDP-bound NRAS wild-type protein vs GDP-bound KRAS wild-type protein
GDP-bound NRAS wild-type protein, sequence (P01111 whole entry): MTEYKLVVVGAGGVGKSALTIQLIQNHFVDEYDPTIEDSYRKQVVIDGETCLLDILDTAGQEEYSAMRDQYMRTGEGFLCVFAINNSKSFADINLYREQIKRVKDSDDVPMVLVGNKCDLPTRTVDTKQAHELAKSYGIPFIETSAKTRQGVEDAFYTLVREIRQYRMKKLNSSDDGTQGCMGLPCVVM

[4] = target: GDP-bound KRAS wild-type protein (Homo sapiens, UniProt P01116); assay: Binding to KRAS by surface plasmon resonance (SPR), Single Cycle Kinetics
GDP-bound KRAS wild-type protein, sequence (P01116 whole entry): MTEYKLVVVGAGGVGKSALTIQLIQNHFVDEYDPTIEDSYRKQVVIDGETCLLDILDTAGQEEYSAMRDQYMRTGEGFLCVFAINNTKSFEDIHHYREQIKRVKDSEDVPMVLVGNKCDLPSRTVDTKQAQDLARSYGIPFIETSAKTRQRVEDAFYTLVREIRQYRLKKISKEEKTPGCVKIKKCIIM

[5] = SPR Single Cycle Kinetics, GDP-bound KRAS wild-type protein, 1:1 binding model, read-out: KRAS KD
[6] = SPR, Single Cycle Kinetics, 1:1 binding model, GDP-bound KRAS wild-type protein, read-out: KRAS KD
[7] = SPR, Single Cycle Kinetics, GDP-bound KRAS wild-type protein, read-out: KRAS KD

Compound	IC50 [1]	Kd [4, 6]	HRAS/KRAS (ratio of KD value for HRAS to KD value for KRAS) ([2]; SPR, KD ratio class)	NRAS/KRAS (ratio of KD value for NRAS to KD value for KRAS) ([3]; SPR, KD ratio class)	also measured
CCO[C@@H]1C[C@H]2C(=O)NC3(CCC3)C(=O)N(C)[C@@H](C3CCCC3)C(=O)N(C)[C@H](C(=O)N(C)C)CC(=O)N(C)[C@@H](CC)C(=O)N[C@@H]([C@@H](C)CC)C(=O)N(C)CC(=O)N(C)[C@H]3C/C=C\CCN(C3=O)[C@@H](Cc3ccc(C(F)(F)F)cc3)C(=O)N(C)CC(=O)N[C@@H](CCc3cc(F)c(Cl)c(F)c3)C(=O)N2C1 [PP1262]	56.7 nM	0.24 nM	B (a compound having 3 or more and less than 10 is denoted as B)	A (a compound having 10 or more and less than 20 is denoted as A)	–
CCO[C@@H]1C[C@H]2C(=O)NC3(CCC3)C(=O)N(C)[C@@H](C(CC)CC)C(=O)N(C)[C@H](C(=O)N(C)C)CC(=O)N(C)[C@@H](CC3CCCC3)C(=O)N[C@@H]([C@@H](C)CC)C(=O)N(C)CC(=O)N(C)[C@H]3C/C=C\CCN(C3=O)[C@@H](CC3CCCCC3)C(=O)N(C)CC(=O)N[C@@H](CCc3cc(F)c(C(F)(F)F)c(F)c3)C(=O)N2C1 [PP1430]	70.4 nM	0.85 nM	A (a compound having 10 or more and less than 20 is denoted as A)	A (a compound having 10 or more and less than 20 is denoted as A)	–
CCC(CC)[C@H]1C(=O)N(C)[C@H](C(=O)N(C)C)CC(=O)N(C)[C@@H](COC)C(=O)N[C@@H]([C@@H](C)CC)C(=O)N2CCC[C@H]2C(=O)N(C)[C@H]2C/C=C\CCN(C2=O)[C@@H](Cc2ccc(C(F)(F)F)cc2)C(=O)N(C)CC(=O)N[C@@H](CCc2ccc(Cl)c(Cl)c2)C(=O)N2C[C@H](OC3CCCC3)C[C@H]2C(=O)NC2(CC(C)(C)C2)C(=O)N1C [PP2651]	147 nM	–	–	–	HRAS/KRAS (ratio of KD value with respect to GDP-bound HRAS wild-type protein to KD value with respect to KRAS) [2]: A (a compound having 10 or more and less than 20 is denoted as A); NRAS/KRAS (ratio of KD value with respect to GDP-bound NRAS wild-type protein to KD value with respect to KRAS) [3]: AA (a compound having 20 or more is denoted as AA); Kd [4, 5]: 1.9 nM
CC[C@H](C)[C@@H]1NC(=O)[C@H](CC)N(C)C(=O)C[C@@H](C(=O)N(C)C)N(C)C(=O)[C@H](C2CCCC2)N(C)C(=O)C2(CCC2)NC(=O)[C@@H]2C[C@@H](C(F)(F)F)CN2C(=O)[C@H](CCc2cc(F)c(C(F)(F)F)c(F)c2)NC(=O)CN(C)C(=O)[C@H](CC2CCC(F)(F)CC2)N2CC/C=C\C[C@@H](C2=O)N(C)C(=O)CN(C)C1=O [PP1451, (2S,8S,12R,14S,20S,23S,27S,30S,36S,38Z)-20-cyclopentyl-2-[(4,4-difluorocyclohexyl)methyl]-8-[2-[3,5-difluoro-4-(trifluoromethyl)phenyl]ethyl]-27-ethyl-N,N,4,19,22,26,32,35-octamethyl-30-[(1S)-1-methylpropyl]-3,6,9,15,18,21,25,28,31,34,42-undecaoxo-12-(trifluoromethyl)spiro[1,4,7,10,16,19,22,26,29,32,35-undecazatricyclo[34.5.1.0^10,14]dotetracont-38-ene-17,1′-cyclobutane]-23-carboxamide]	61.1 nM	0.14 nM	A (a compound having 10 or more and less than 20 is denoted as A)	A (a compound having 10 or more and less than 20 is denoted as A)	–
CCC[C@H]1C(=O)N[C@@H]([C@@H](C)CC)C(=O)N2CCC[C@H]2C(=O)N(C)[C@H]2C/C=C\CCN(C2=O)[C@@H](Cc2ccc(C(F)(F)F)cc2)C(=O)N(C)CC(=O)N[C@@H](CCc2ccc(C(F)(F)F)c(OC)c2)C(=O)N2C[C@H](OCC)C[C@H]2C(=O)N(C)C2(CCC2)C(=O)N(C)[C@@H](C2CCCC2)C(=O)N(C)[C@H](C(=O)N2CCCCC2)CC(=O)N1C [PP3099]	–	–	–	–	IC50 ([1]; read-out: NCI-H441 cell proliferation inhibitory activity, 50% proliferation inhibitory concentration (IC50 value), NCI-H441, four days, CellTiter-Glo): 13.3 nM; HRAS/KRAS (ratio of KD value for HRAS to KD value for KRAS) ([2]; SPR): A (a compound having 10 or more and less than 20 is denoted as A); ratio of the KD value with respect to GDP-bound HRAS wild-type protein to the KD value with respect to KRAS ([2]; SPR, KD(HRAS)/KD(KRAS)): A (a compound having 10 or more and less than 20 is denoted as A); NRAS/KRAS (ratio of KD value for NRAS to KD value for KRAS) ([3]; SPR): A (a compound having 10 or more and less than 20 is denoted as A); ratio of the KD value with respect to GDP-bound NRAS wild-type protein to the KD value with respect to KRAS ([3]; SPR, KD(NRAS)/KD(KRAS)): A (a compound having 10 or more and less than 20 is denoted as A); Kd ([4]; SPR, Single Cycle Kinetics, 1:1 binding model, read-out: KD value with respect to GDP-bound KRAS wild-type protein): 0.61 nM; Kd [4, 7]: 0.61 nM

More lines, in order of falling IC50 [1], values ahead:

IC50 [1]	Kd [4, 6]	Compound	HRAS/KRAS (ratio of KD value for HRAS to KD value for KRAS) ([2]; SPR, KD ratio class)	NRAS/KRAS (ratio of KD value for NRAS to KD value for KRAS) ([3]; SPR, KD ratio class)	also measured
54.3 nM	–	CCOC[C@H]1C(=O)N[C@@H]([C@@H](C)CC)C(=O)N(C2CC2)CC(=O)N(C)[C@H]2C/C=C\CCN(C2=O)[C@@H](Cc2ccc(C)cc2)C(=O)N(C)CC(=O)N[C@@H](CCc2ccc(Cl)c(Cl)c2)C(=O)N2C[C@H](OCC)C[C@H]2C(=O)NC2(CC(C)(C)C2)C(=O)N(C)[C@@H](CC(C)(C)C)C(=O)N(C)[C@H](C(=O)N(C)C)CC(=O)N1C [PP2728]	–	–	HRAS/KRAS (ratio of KD value with respect to GDP-bound HRAS wild-type protein to KD value with respect to KRAS) [2]: A (a compound having 10 or more and less than 20 is denoted as A); NRAS/KRAS (ratio of KD value with respect to GDP-bound NRAS wild-type protein to KD value with respect to KRAS) [3]: AA (a compound having 20 or more is denoted as AA); Kd [4, 5]: 1.1 nM
42.7 nM	–	CCCC[C@H]1C(=O)NC2(CCC2)C(=O)N(C)[C@@H](C2CCCC2)C(=O)N(C)[C@H](C(=O)N(C)C)CC(=O)N(C)[C@@H](CC)C(=O)N[C@@H]([C@@H](C)CC)C(=O)N(C)CC(=O)N(C)[C@H]2C/C=C\CCN(C2=O)[C@@H](Cc2ccc(C(F)(F)F)cc2)C(=O)N(C)CC(=O)N[C@@H](CCc2cc(F)c(C(F)(F)F)c(F)c2)C(=O)N1C [PP1150]	–	–	HRAS/KRAS (ratio of KD value for HRAS to KD value for KRAS) ([2]; SPR): A (a compound having 10 or more and less than 20 is denoted as A); NRAS/KRAS (ratio of KD value for NRAS to KD value for KRAS) ([3]; SPR): AA (a compound having 20 or more is denoted as AA); Kd [4, 7]: 0.17 nM
29.9 nM	0.21 nM	CCO[C@@H]1C[C@H]2C(=O)NC3(CCC3)C(=O)N(C)[C@@H](C(CC)CC)C(=O)N(C)[C@H](C(=O)N(C)C)CC(=O)N(C)[C@@H](CC)C(=O)N[C@@H]([C@@H](C)CC)C(=O)N(C)CC(=O)N(C)[C@H]3C/C=C\CCN(C3=O)[C@@H](Cc3ccc(C(F)(F)F)cc3)C(=O)N(C)CC(=O)N[C@@H](CCc3ccc(C(F)(F)F)c(OC)c3)C(=O)N2C1 [PP1207]	A (a compound having 10 or more and less than 20 is denoted as A)	AA (a compound having 20 or more is denoted as AA)	–
14.8 nM	1.2 nM	CCO[C@@H]1C[C@H]2C(=O)NC3(CCC3)C(=O)N(C)[C@@H](C3CCCC3)C(=O)N(C)[C@H](C(=O)N(C)C)CC(=O)N(C)[C@@H](CC(C)C)C(=O)N[C@@H]([C@@H](C)CC)C(=O)N(C)CC(=O)N(C)[C@H]3C/C=C\CCN(C3=O)[C@@H](Cc3ccc(F)cc3C)C(=O)N(C)CC(=O)N[C@@H](CCc3cc(F)c(Cl)c(F)c3)C(=O)N2C1 [PP1481]	B (a compound having 3 or more and less than 10 is denoted as B)	A (a compound having 10 or more and less than 20 is denoted as A)	–
6.2 nM	0.15 nM	CCO[C@@H]1C[C@H]2C(=O)NC3(CCC3)C(=O)N(C)[C@@H](C3CCCC3)C(=O)N(C)[C@H](C(=O)N3CCOCC3)CC(=O)N(C)[C@@H](CC(C)C)C(=O)N[C@@H]([C@@H](C)CC)C(=O)N3CC[C@H]3C(=O)N(C)[C@H]3C[C@@H](C)[C@@H](C)CN(C3=O)[C@@H](Cc3ccc(C(F)(F)F)cc3)C(=O)N(C)CC(=O)N[C@@H](CCc3ccc(C(F)(F)F)c(Cl)c3)C(=O)N2C1 [PP1361]	B (a compound having 3 or more and less than 10 is denoted as B)	A (a compound having 10 or more and less than 20 is denoted as A)	–
5 nM	0.078 nM	CCO[C@@H]1C[C@H]2C(=O)NC3(CCC3)C(=O)N(C)[C@@H](C3CCCC3)C(=O)N(C)[C@H](C(=O)N3CCOCC3)CC(=O)N(C)[C@@H](CC)C(=O)N[C@@H]([C@@H](C)CC)C(=O)N(C)CC(=O)N(C)[C@H]3CC[C@@H](C)CN(C3=O)[C@@H](Cc3ccc(C(F)(F)F)cc3)C(=O)N(C)CC(=O)N[C@@H](CCc3cc(F)c(C(F)(F)F)c(F)c3)C(=O)N2C1 [PP1372]	B (a compound having 3 or more and less than 10 is denoted as B)	B (a compound having 3 or more and less than 10 is denoted as B)	–
2.3 nM	0.057 nM	CCO[C@@H]1C[C@H]2C(=O)NC3(CCCC3)C(=O)N(C)[C@@H](C3CCCC3)C(=O)N(C)[C@H](C(=O)N(C)C)CC(=O)N(C)[C@@H](CC)C(=O)N[C@@H]([C@@H](C)CC)C(=O)N(C)CC(=O)N(C)[C@H]3CC[C@@H](C)CN(C3=O)[C@@H](Cc3ccc(C(F)(F)F)cc3)C(=O)N(C)CC(=O)N[C@@H](CCc3cc(F)c(C(F)(F)F)c(F)c3)C(=O)N2C1 [PP1370]	C (A compound having a KD ratio of 0.1 or more and less than 3 is denoted as C)	C (A compound having a KD ratio of 0.1 or more and less than 3 is denoted as C)	–
